In PMC9166630, “SAR Probing of KX2-391 Provided Analogues With Juxtaposed Activity Profile Against Major Oncogenic Kinases” (Frontiers in Oncology, 2022):
Several values for one entry are separate records, joined by “and”; a condition that tells them apart may be missing. Equal values may be shown once.

Assays:
JAK1~b = molecular target: T1, JAK1~b (Homo sapiens, UniProt P23458); experiment: PamChip tyrosine kinase microarray, JAK1~b; assay type: biochemical; conditions: 4e 0.1 µM, HL60 lysate
T1 construct: The compound 4e was spiked into HL60 cell lysate at different concentrations; endogenous in cells; host or cells: HL60 cell lysate
T1 sequence (P23458 whole entry): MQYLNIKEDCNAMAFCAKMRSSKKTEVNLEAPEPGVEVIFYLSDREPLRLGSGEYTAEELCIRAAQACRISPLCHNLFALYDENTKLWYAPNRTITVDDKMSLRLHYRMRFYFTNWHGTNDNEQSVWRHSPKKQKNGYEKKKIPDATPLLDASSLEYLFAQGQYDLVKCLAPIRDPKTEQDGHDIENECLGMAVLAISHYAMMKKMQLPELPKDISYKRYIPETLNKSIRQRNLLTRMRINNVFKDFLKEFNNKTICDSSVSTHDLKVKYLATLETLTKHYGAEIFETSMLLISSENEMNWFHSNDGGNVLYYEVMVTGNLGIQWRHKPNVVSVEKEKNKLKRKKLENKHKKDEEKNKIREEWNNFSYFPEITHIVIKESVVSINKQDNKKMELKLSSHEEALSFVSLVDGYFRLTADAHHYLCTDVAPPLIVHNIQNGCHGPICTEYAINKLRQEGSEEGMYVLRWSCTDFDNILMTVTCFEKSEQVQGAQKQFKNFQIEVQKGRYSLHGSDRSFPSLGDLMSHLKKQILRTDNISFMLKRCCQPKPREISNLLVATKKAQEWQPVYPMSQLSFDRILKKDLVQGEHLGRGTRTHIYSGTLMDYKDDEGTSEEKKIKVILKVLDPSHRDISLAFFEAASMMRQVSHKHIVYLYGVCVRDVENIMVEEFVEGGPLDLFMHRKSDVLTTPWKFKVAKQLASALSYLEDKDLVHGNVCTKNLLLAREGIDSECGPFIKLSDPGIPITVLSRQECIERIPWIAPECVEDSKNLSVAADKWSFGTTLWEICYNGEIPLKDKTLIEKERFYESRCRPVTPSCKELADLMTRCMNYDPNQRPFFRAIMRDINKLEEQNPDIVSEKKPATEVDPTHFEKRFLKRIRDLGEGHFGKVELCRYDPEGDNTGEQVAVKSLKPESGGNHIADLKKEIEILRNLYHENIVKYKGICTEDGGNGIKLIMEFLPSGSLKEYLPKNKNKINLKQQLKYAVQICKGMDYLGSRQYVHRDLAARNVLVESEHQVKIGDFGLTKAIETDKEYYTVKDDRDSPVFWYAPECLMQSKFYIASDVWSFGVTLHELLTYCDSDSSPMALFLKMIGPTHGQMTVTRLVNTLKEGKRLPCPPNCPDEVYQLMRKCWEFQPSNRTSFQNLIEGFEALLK
Description: (§1) The changes in kinase activities induced by treatment with 4e were monitored within the HL60 cell lines using PamGene’s (Hertogenbosch, Netherlands) PamChip® peptide microarray profiler, which quantifies the activities of 144 tyrosine kinases (YK) ([29], [30]) (Figure 7). Results are provided as a log fold change (LFC) heatmap and Mean Kinase Statistic. From the LFC it is apparent that compound 4e, at a concentration of 0.1 µM, induced sizable changes to the activity of several kinases within the cell signaling YK profile (Figure 7A).
(§2) An Upstream Kinase tool was used to generate a putative list of kinases responsible for phosphorylating the phospho-sites on the PamChip (Figure 7B) ([31]). It is an interpretation and is highly dependent on the contents of the underlying phosphorylation databases. A Kinase Score was used for ranking kinases based on their significance and specificity in terms of the set of peptides used for the corresponding kinase. Kinase Statistics indicates the overall change of the peptide set that represents the kinase. Kinase statistics value <0 indicates lower kinase activity in the compound spiked lysate and vice versa ([32], [33]). Table 5 lists the 20 most changed kinases within treated HL60 cell lysates by 0.1 μM 4e, ranked according to their Kinase Score.
(§3) The compound 4e was spiked into HL60 cell lysate at different concentrations (0.001, 0.01, 0.1, 1, 10 and 50 μM). In addition, DMSO was also spiked in HL60 lysate at low concentration (2% v/v) as control. Samples were profiled on PamGene’s Tyrosine Kinase (PTK) arrays in technical replicates, covering a total of 196 phosphorylation sites. Frozen HL60 cultured cell pellet was sent to PamGene. At PamGene, cells were lysed using a lysis buffer and proteases inhibitors cocktail. Protein concentration was measured using standard Bradford assay as per PamGene SOPs. These lysates were further used for generating the PTK activity profiles. For spiking, 4e was received as powder form and dissolved in DMSO at PamGene facility followed by storing at -20°C in small aliquots. PamGene used its in-house bioinformatics toolbox in combination with other methods to generate hypotheses of signaling pathways.

Tyk2 = experiment: PamChip tyrosine kinase microarray, Tyk2; assay type: biochemical, human; conditions: 4e 0.1 µM, HL60 lysate
Description: as §1, §2, §3

Fgr = molecular target: T2, Fgr (Homo sapiens, UniProt P09769); experiment: PamChip tyrosine kinase microarray, Fgr; assay type: biochemical; conditions: 4e 0.1 µM
T2 construct: endogenous in cells; host or cells: HL60 lysate
T2 sequence (P09769 whole entry): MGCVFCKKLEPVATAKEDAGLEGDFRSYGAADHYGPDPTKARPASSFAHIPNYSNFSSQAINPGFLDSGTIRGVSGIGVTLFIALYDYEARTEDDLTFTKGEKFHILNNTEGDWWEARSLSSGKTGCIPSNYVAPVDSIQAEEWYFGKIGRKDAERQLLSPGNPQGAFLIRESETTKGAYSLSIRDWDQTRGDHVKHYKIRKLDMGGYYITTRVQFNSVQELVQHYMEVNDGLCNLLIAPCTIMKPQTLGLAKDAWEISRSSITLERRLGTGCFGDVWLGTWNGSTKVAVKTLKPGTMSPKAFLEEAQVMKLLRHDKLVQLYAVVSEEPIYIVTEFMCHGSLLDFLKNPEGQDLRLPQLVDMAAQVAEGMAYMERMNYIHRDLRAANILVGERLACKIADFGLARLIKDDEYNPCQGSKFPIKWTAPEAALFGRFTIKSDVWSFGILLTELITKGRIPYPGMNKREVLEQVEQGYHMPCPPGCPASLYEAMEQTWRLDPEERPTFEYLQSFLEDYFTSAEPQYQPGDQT
Description: as §1, §2, §3

CREB = experiment: Human phosphokinase array, CREB; assay type: cell-based
Description: The kinome tree representation (Figure 7C), which was generated by raising the Kinase Score cut-off to >1.2, confirmed that, unlike tirbanibulin and our prototype molecule KX1-136, 4e’s effects were more observable on kinases other than the Src family such as the Eph and TEC families. […] Therefore, we screened compound 4e using the Human Phospho-Kinase Array® kit from R&D systems (Minneapolis, MN, USA). In this system, 35 phosphorylated YK and serine-threonine kinase (STK) enzymes in the untreated (control) and treated (test) HL60 cell lysates were captured on nitrocellulose membrane, pre-spotted with phosphokinase-specific capture antibodies, and then visualized by detection antibody cocktails (Figure 8). The difference in the spot intensity between untreated (control) and treated cells is proportional to change in the amount of the phosphorylated protein induced by 4e.
The phosphorylation profile of 48 kinases was performed using the Proteome Profiler Human Phospho-Kinase Antibody Array Kit by R&D Systems (Minneapolis, MN, USA) according to the protocol. Briefly, the total cellular protein was extracted using the Lysis buffer and was quantified using Bio-Rad DC Protein Assay kit (Hercules, CA, USA). Nitrocellulose membrane set (A&B), pre-spotted with kinase-specific capture antibodies, were first blocked with Array Buffer-1 at RT for 30 min on a rocking platform shaker. Approximately 600 µg of protein concentrate was diluted in the buffer provided and was added onto the membrane set, and the membranes were incubated overnight at 4°C in an 8-well plate. Subsequently, membranes were washed with Wash Buffer and incubated with appropriate Detection Antibody cocktails for 2 h at RT. Streptavadin-HRP (1:2000) was added onto membranes and incubated for 30 min at RT. Membranes were washed, and Chemiluminescent Detection Reagents 1&2 were applied in equal volumes for detection. The signals were detected on C-DiGit®Blot Scanner (LI-COR, Odyssey Imaging Systems, Lincoln, Nebraska, USA) using Image Studio 5.0 software.

Tyro3/Sky = molecular target: T3, Tyro3/Sky (Homo sapiens, UniProt Q06418); experiment: PamChip tyrosine kinase microarray, Tyro3/Sky; assay type: biochemical; conditions: 4e 0.1 µM, HL60 lysate
T3 construct: endogenous in cells; host or cells: HL60 lysate
T3 sequence (Q06418 41-890): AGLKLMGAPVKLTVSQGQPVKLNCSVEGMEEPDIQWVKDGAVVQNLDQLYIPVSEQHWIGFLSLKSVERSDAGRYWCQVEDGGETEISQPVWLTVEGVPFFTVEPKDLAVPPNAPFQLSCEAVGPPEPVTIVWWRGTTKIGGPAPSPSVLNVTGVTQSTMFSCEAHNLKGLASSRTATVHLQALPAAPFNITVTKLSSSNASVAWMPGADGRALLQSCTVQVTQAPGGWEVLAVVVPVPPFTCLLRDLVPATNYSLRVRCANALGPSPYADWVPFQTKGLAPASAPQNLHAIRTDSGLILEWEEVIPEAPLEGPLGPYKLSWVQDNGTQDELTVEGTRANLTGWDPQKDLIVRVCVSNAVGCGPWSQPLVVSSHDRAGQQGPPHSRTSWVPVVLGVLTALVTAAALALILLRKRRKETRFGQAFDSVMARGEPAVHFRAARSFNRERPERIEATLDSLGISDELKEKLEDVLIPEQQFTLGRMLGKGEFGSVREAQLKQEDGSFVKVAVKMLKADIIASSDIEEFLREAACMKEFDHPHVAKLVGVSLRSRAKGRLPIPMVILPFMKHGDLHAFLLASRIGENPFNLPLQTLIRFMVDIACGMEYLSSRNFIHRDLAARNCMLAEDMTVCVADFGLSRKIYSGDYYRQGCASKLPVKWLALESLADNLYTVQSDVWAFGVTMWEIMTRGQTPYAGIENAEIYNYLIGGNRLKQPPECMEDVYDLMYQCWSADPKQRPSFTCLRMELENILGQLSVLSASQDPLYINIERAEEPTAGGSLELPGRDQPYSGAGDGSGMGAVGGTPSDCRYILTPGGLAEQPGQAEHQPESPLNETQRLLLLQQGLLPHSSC
Description: as §1, §2, §3

O=C(Cc1ccc(NC(=O)c2cccc(Cl)c2)cc1)NCc1ccccc1 [Compound 4e, N-(4-(2-(benzylamino)-2-oxoethyl)phenyl)-3-chlorobenzamide]
Mean Final Score (JAK1~b): 1.3907 | Mean Kinase Statistic (JAK1~b): -0.5828 | Mean Significance Score (JAK1~b): 0.8736 | Mean Specificity Score (JAK1~b): 0.5171 | Mean Final Score (Tyk2): 1.7035 | Mean Kinase Statistic (Tyk2): -0.6710 | Mean Significance Score (Tyk2): 1.1411 | Mean Specificity Score (Tyk2): 0.5624 | PamGene Ranking (Fgr; HL60): 7 | Mean Final Score (Fgr; HL60 lysate): 2.2023 | Mean Kinase Statistic (Fgr; HL60 lysate): -0.7971 | Mean Significance Score (Fgr; HL60 lysate): 1.1688 | Mean Specificity Score (Fgr; HL60 lysate): 1.03 and 1.0335 | phosphokinase signal after 4e exposure, CREB (CREB; HL60 cell lysate, treated): 682.43 | Change in Signal, CREB (CREB; treated vs untreated HL60): 42.08 | % Change, CREB (CREB; treated vs untreated HL60, Ser133): 6.57% and ~ 6% | Mean Final Score (Tyro3/Sky): 1.8204 | Mean Kinase Statistic (Tyro3/Sky): -0.5274 | Mean Significance Score (Tyro3/Sky): 1.2459 | Mean Specificity Score (Tyro3/Sky): 0.5745
